Key:
Type in all cases: cell-based, human
[1] = tested on: HT-29; test: Autophagy induction, monodansylcadaverine (MDC) fluorescence; conditions: compound at IC50, 24 h, vs control
Protocol: Autophagy induction in cells treated with the tested drugs was determined by measuring Monodansylcadaverine (MDC; Sigma-Aldrich; St. Louis, MO, USA) fluorescence according to a modified method described by Vázquez. […] In the cell, MDC accumulates in lipid-rich cell membranes. It has been shown that MDC can be used as a dye for detecting autophagy, as it accumulates in autophagolysosomes as a result of interaction with membrane lipids.
Cells were seeded in black 96-well fluorometric microplates at a density of 10 × 10^3 cells/mL. […] Following compound incubation, the medium was removed, and the cell monolayers were washed twice with HBSS (140 mM NaCl, 5 mM KCl, 0.8 mM MgCl2, 1.8 mM CaCl2, 1 mM Na2HPO4, 10 mM HEPES, and 1% glucose). A solution of MDC at a final concentration of 50 μM was added to each well and incubated in a CO2 cell culture incubator at 37 °C for 15 min. After incubation with MDC, the probe was removed, and the cells were lysed with 50 μL of lysis buffer (10 mM TRIS-HCl; pH 8 containing 0.1% Triton X-100). After lysis, fluorescence was measured at an excitation wavelength of λex = 390 nm and an emission wavelength of λem = 460 nm using a Perkin-Elmer LS-5B spectrofluorometer (Waltham, MA, USA). In order to normalize the number of cells in individual samples, the amount of DNA was determined by adding 50 μL of EB (final concentration 0.2 mM) to each well after measuring the MCB fluorescence and measuring the EB fluorescence at an excitation wavelength of λex = 530 nm and an emission wavelength of λem = 590 nm. The results were calculated as the ratio of MDC fluorescence to EB fluorescence.

[2] = tested on: HT-29; test: Cell cycle analysis via flow cytometry (propidium iodide); conditions: compound at IC50, 24 h, vs control
Protocol: The most commonly used fluorescent dyes for cell cycle analysis are fluorochromes that penetrate the cell membrane into the interior of permeabilized cells and bind stoichiometrically to DNA via intercalation, e.g., DAPI, propidium iodide (PI). The analysis is performed on cells fixed in ethanol. In this work, the cell cycle analysis was performed using the method described by Darzynkiewicz and Juan.
Cells (10 × 10^3) were seeded in 35 mm dishes and cultured in the medium for 24 h to attain the logarithmic growth phase. […] Subsequently, cells were trypsinized and centrifuged for 10 min at 400× g at 4 °C. The cell suspension in 100 μL of PBS was fixed in 1 mL of 70% ethanol (−20 °C) and stored at this temperature until analysis. Immediately before analysis, the ethanol-fixed cell suspension was centrifuged at 10,000 rpm for 10 min at 4 °C. The pellet was washed with cold (4 °C) PBS to remove residual ethanol, and the cell suspension was centrifuged again under the same conditions. A volume of 300 μL of PBS containing 4 mg/mL propidium iodide (final concentration 75 μM) and 1 mg/mL RNAse A (final concentration 20 μg/mL) was added to the cell pellet and incubated for at least 30 min at 37 °C in the dark. Stained cells were analyzed using a flow cytometer (Becton Dickinson, Franklin Lakes, NJ, USA), counting 10,000 cells in each sample. Data were analyzed using FlowJo 10.10 software (FlowJo, Williamson Way Ashland, OR, USA).

[3] = tested on: HT-29; test: Superoxide anion level, DHE probe; conditions: compound at IC50, 24 h, vs control
Protocol: Superoxide anion (O2^•−) levels were quantified using a microplate spectrofluorometric assay with dihydroethidium (DHE) (Life Technologies, Carlsbad, CA, USA). DHE is a well-established fluorogenic probe for intracellular superoxide detection. […] The reaction between superoxide and DHE produces a highly specific red fluorescent product, 2-hydroxyethidium (2-OH-E ^+).
(§1) Cells were seeded in black 96-well fluorometric microplates at a density of 10 × 10^3 cells/mL. […] Following compound incubation, the medium was removed, and the cell monolayers were washed twice with HBSS (140 mM NaCl, 5 mM KCl, 0.8 mM MgCl2, 1.8 mM CaCl2, 1 mM Na2HPO4, 10 mM HEPES, and 1% glucose). A volume of 50 µL of DHE solution in HBSS (final concentration 5 μM) was added to each well, and the cells were incubated for 30 min in the dark at 37 °C. After incubation with the DHE, fluorescence measurements were conducted using a Perkin-Elmer LS-5B spectrofluorometer (Waltham, MA, USA) at the following excitation and fluorescence emission wavelengths: λex = 498 nm/λem = 582 nm. The fluorescence intensity of control cells was arbitrarily assigned a value of 100%. The results were expressed as percentages of control, calculated by comparing the fluorescence intensity ratio of the test samples to controls (100%). The fluorescence of samples was denoted as Δf in relation to the control.

[4] = tested on: colon cancer cells; test: Reactive nitrogen species level, DAF-FM probe, all tested cell lines; conditions: any of the tested cell lines, compound at IC50, 24 h
Protocol: Diaminofluorescein-FM diacetate (DAF-FM diacetate, Invitrogen, Carlsbad, CA, USA), a cell-permeable fluorescent probe, is widely utilized for the detection and quantification of reactive nitrogen species (RNS), primarily nitric oxide (NO). […] Upon interaction with NO, however, it undergoes a chemical transformation resulting in the formation of a highly fluorescent benzotriazole derivative with excitation and emission maxima at 495 and 515 nm, respectively.
as §1, with “[…] Fluorescence” for “A volume of 50 µL of DHE solution in HBSS (final concentration 5 μM) was added to each well, and the cells were incubated for 30 min in the dark at 37 °C. After incubation with the DHE, fluorescence”, “(MA,” for “(Waltham, MA,”, “495” for “498”, “515” for “582”

Row | Compound | Increase in MDC fluorescence intensity (autophagy) [1] [%] | Increase in the G2/M phase cell percentage [2] [%] | Increase in O2−• (superoxide anion) levels [3] | Change in RNS levels [4]
1 | O=C1/C(=C/c2ccccc2)COc2ccccc21 [Compound 1] | 25 | 25 | approximately 40% | –
2 | COc1cccc(/C=C2/C(=O)c3ccccc3OC2c2ccccc2)c1 (centres unmarked) [Compound 3] | – | – | – | no significant changes
3 | O=C1/C(=C/c2ccccc2)C(c2ccccc2)Oc2ccccc21 (centres unmarked) [Compound 5] | 20 | 25 | ~35% | no significant changes

Source: paper PMC11641365, “Evaluation of In Vitro Biological Activity of Flavanone/Chromanone Derivatives: Molecular Analysis of Anticancer Mechanisms in Colorectal Cancer” (International Journal of Molecular Sciences, 2024)
